We go through 13 compounds from PubChem BioAssay AID504687 (Sanford-Burnham Center for Chemical Genomics, 2011).

pIC50: −log10 of the molar value. Activity calls are given as the source filed them. No rule for the calls is given here.

This test concerns the target Ubiquitin-conjugating enzyme E2 N (Homo sapiens) (UniProt P61088). In words: UBC13 polyubiquitin chain formation inhibitors, SAR follow-up, biochemical, TR-FRET (AID 504687).

Chain of Ubiquitin-conjugating enzyme E2 N (Homo sapiens) (P61088 whole entry, looked up): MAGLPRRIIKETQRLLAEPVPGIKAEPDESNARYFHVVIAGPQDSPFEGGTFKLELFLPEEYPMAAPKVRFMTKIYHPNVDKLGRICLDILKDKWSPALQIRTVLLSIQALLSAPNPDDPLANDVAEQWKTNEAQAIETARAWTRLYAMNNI

For the compound `O=C(CCCn1c(=O)c2ccccc2n(Cc2cccc(F)c2)c1=O)NC1CCN(Cc2ccccc2)CC1`, the pIC50 is 6.29.

On to `COCCOC(=O)c1ccc(NC(=O)CCCCCN2C(=O)c3ccccc3C2=O)cc1`, for which the IC50 is > 100 µM (inactive).

With `CN1CCN(CCCNC(=O)c2ccc(/C=C3\Oc4ccccc4N(Cc4ccc(Cl)cc4)C3=O)cc2)CC1`, the pIC50 was 5.36.

With `CCN(Cc1ccccc1)S(=O)(=O)c1ccc(C(=O)N(CCCN(C)C)c2nc3cc4c(cc3s2)OCO4)cc1`, the negative-log IC50 (pIC50) was 5.35.

For `Cc1cc(NS(=O)(=O)c2ccc(NC(=O)CCCCCN3C(=O)c4ccccc4C3=O)cc2)nc(C)n1`, the IC50 is > 100 µM (inactive).

As for `Cc1ccccc1CN1CCC(CNC(=O)C2CCCN(c3ncnc4c3nc3n4CCCCC3)C2)CC1` (stereo not drawn), the negative logarithm of the IC50 (pIC50) is 5.33.

With `Cc1cc(C)c2sc(N(CCCN(C)C)C(=O)c3ccc(S(=O)(=O)N(C)Cc4ccccc4)cc3)nc2c1`, the pIC50 is 5.82.

Consider `CCOc1ccc2nc(N(CCCN(C)C)C(=O)c3ccc(S(=O)(=O)N4CCc5ccccc5C4)cc3)sc2c1`, for which the pIC50 was 5.50.

In the case of `Cc1c(NC(=O)CCCN2C(=O)c3cccc4cccc(c34)C2=O)c(=O)n(-c2ccccc2)n1C`, the pIC50 was 5.58.

In the case of `COc1ccc2sc(N(CCCN(C)C)C(=O)c3ccc(S(=O)(=O)N(C)Cc4ccccc4)cc3)nc2c1`, the pIC50 is 5.23.

As for `COc1ccc(C(=O)Nn2c(C)nc3ccccc3c2=O)cc1`, the pIC50 was 5.63.

Turning to `COC(=O)c1ccc(OCC(O)CN2CCN(CCN3C(=O)c4cccc5cccc(c45)C3=O)CC2)cc1` (stereo not drawn), the pIC50 is 5.34.

As to `Cc1cccc(OCC(O)CN2CCN(CCN3C(=O)c4cccc5cccc(c45)C3=O)CC2)c1C` (stereo not drawn), the negative logarithm of the IC50 (pIC50) is 5.32.
